Test results published in the NIST ThermoML archive (doi:10.1016/j.tca.2013.09.032).

Test: molar heat capacity at constant pressure
Settings: 101.33 kPa, Crystal, Vacuum adiabatic calorimetry

Cc1cc2nc3c(=O)[nH]c(=O)nc-3n(C[C@H](O)[C@H](O)[C@H](O)CO)c2cc1C [riboflavin]
Settings | molar heat capacity at constant pressure [J/K/mol]
1 K | 0.0523
2 K | 0.209
3 K | 0.47
4 K | 0.836
5 K | 1.31
6 K | 1.88
6.75 K | 2.55
7 K | 2.65
7.32 K | 2.83
8 K | 3.25
8.41 K | 3.45
8.94 K | 4.08
9 K | 4.08
9.34 K | 4.48
9.68 K | 4.81
10 K | 5.1
10.15 K | 5.25
10.36 K | 5.42
10.98 K | 6.23
11.56 K | 7.05
11.98 K | 7.68
13.16 K | 9.25
15 K | 12
15.03 K | 12.22
16.92 K | 15.24
18.77 K | 18.25
20 K | 20.35
20.65 K | 21.38
22.79 K | 25.35
24.95 K | 29.29
25 K | 29.5
27.13 K | 33.81
29.37 K | 38.36
30 K | 39.49
31.61 K | 42.49
33.91 K | 47.31
35 K | 49.35
36.25 K | 51.78
38.52 K | 56.45
40 K | 59.26
40.96 K | 60.98
43.38 K | 65.91
45 K | 68.91
45.72 K | 70.28
48.12 K | 74.84
50 K | 78.34
50.55 K | 79.52
52.99 K | 83.98
55.45 K | 88.71
57.93 K | 93.42
60 K | 97.31
60.48 K | 98.18
62.91 K | 102.6
65.4 K | 106.9
67.89 K | 110.9
70 K | 114.4
70.37 K | 115.1
72.85 K | 119.2
75.32 K | 123.3
77.79 K | 128.2
80 K | 132
80.34 K | 132.4
82.75 K | 137.1
83.48 K | 138.3
85.22 K | 141.4
86.72 K | 144.2
88.86 K | 147.9
89.48 K | 148.9
90 K | 149.6
92.71 K | 153.8
95.7 K | 158.4
98.7 K | 162.9
100 K | 165.2
101.67 K | 167.8
104.65 K | 172.4
107.64 K | 177.1
110 K | 180.4
110.63 K | 181.6
113.62 K | 185.8
116.63 K | 190.1
119.63 K | 194.3
120 K | 195
122.64 K | 198.5
125.66 K | 202.7
128.69 K | 207.3
130 K | 209.2
131.7 K | 211.6
134.72 K | 215.9
137.75 K | 220.3
140 K | 223.3
140.77 K | 224.6
143.8 K | 229
146.83 K | 233
149.86 K | 237.2
150 K | 237.5
152.9 K | 241.7
155.94 K | 246
158.98 K | 250.1
160 K | 251.7
162.02 K | 254.2
165.06 K | 258.6
168.1 K | 263
170 K | 265.7
171.14 K | 267.3
174.19 K | 271.6
177.26 K | 276
180 K | 279.4
180.3 K | 279.9
183.34 K | 283.9
186.38 K | 288.1
189.42 K | 291.9
190 K | 293
192.46 K | 296.2
195.5 K | 300.5
198.54 K | 305
200 K | 306.7
201.58 K | 308.7
204.61 K | 313
207.64 K | 317.5
210 K | 320.5
210.68 K | 321.4
213.72 K | 325.8
216.77 K | 330
219.81 K | 334
220 K | 334.7
222.86 K | 338.3
225.93 K | 342.3
228.98 K | 346.6
230 K | 348.2
232.02 K | 350.4
235.06 K | 355
238.11 K | 359.4
240 K | 361.5
241.15 K | 363.5
244.2 K | 367.7
247.25 K | 371.5
250 K | 375.1
250.29 K | 375.6
253.34 K | 379.8
256.38 K | 383.9
259.42 K | 388.4
260 K | 389.1
262.46 K | 392.5
265.5 K | 396.6
268.54 K | 400.6
270 K | 403
271.58 K | 404.8
273.15 K | 407.4
274.65 K | 409.2
277.69 K | 413.5
280 K | 416.6
280.72 K | 417.4
283.75 K | 421.5
286.78 K | 425.5
289.8 K | 429.8
290 K | 429.9
292.82 K | 434
295.84 K | 438.2
298.15 K | 441.1
298.86 K | 442.2
302.37 K | 447.3
306.36 K | 453.1
310 K | 458.6
310.36 K | 459.1
314.34 K | 464.5
318.32 K | 470
320 K | 472.1
322 K | 474.1
322.29 K | 474.7
